# Tests used:
# P. aeruginosa UI-18 = assay: MIC determination, P. aeruginosa UI-18; format: cell-based; details: Pseudomonas aeruginosa, UI18; wild-type; * = arithmetic mean of 2-6 MIC determinations; read-out: MIC (ug/mL) P. aeruginosa UI-18
# Description: (§1) MIC determinations: The in vitro antibacterial activity of compounds described in the Examples was evaluated by minimum inhibitory concentration (MIC) testing according to Clinical and Laboratory Standards Institute (CLSI, formerly NCCLS) guidelines. See: Clinical and Laboratory Standards Institute. Methods for Dilution Antimicrobial Susceptibility Tests for Bacteria that Grow Aerobically; Approved Standard-Seventh Edition. CLSI document M7-A7 [ISBN 1-56238-587-9]. Clinical and Laboratory Standards Institute, 940 West Valley Road, Suite 1400, Wayne, Pa. 19087-1898 USA, 2006; also Clinical and Laboratory Standards Institute. Performance Standards for Antimicrobial Susceptibility Testing; Eighteenth Informational Supplement. CLSI document M100-S18 [ISBN1-56238-653-0]. Clinical and Laboratory Standards Institute.
# (§2) The following bacterial strains were used:
# P. aeruginosa UI-18: Wild-type;
# Enterobacter aerogenes = assay: MIC determination, E. aerogenes; format: cell-based; details: Klebsiella aerogenes; quinolone-resistant, ESBL-expressing clinical isolate; * = arithmetic mean of 2-6 MIC determinations; read-out: MIC (ug/mL) E. aerogenes
# Description: as §1, §2
# Enterobacter aerogenes: Quinolone-resistant isolate, expresses extended-spectrum beta-lactamases (ESBL), clinical isolate;
# [1] = test system: Acinetobacter baumanii/haemolyticus; assay: MIC determination, A. baumanii/haemolyticus; format: cell-based; details: Acinetobacter baumannii; multidrug-resistant clinical isolate; * = arithmetic mean of 2-6 MIC determinations; read-out: MIC (ug/mL) A. baumanii/haemolyticus
# Description: as §1, §2
# Acinetobacter baumanii/haemolyticus: Multidrug-resistant clinical isolate;
# P. aeruginosa PAO280 = assay: MIC determination, P. aeruginosa PAO280; format: cell-based; details: Pseudomonas aeruginosa, PAO280, read-out: MIC (ug/mL) P. aeruginosa PAO280
# Description: as §1, §2
# Pseudomonas aeruginosa PA0280: lacks efflux pumps MexAB-oprM, MexXY and MexZ
# Escherichia coli EC-1 = assay: MIC determination, E. coli EC-1; format: cell-based; details: EC1, EC-1: VOGEL, * = arithmetic mean of 2-6 MIC determinations, read-out: MIC (ug/mL) E. coli EC-1
# Description: as §1, §2
# Escherichia coli EC-1: VOGEL;
# Klebsiella pneumoniae = assay: MIC determination, K. pneumoniae; format: cell-based; details: ciprofloxacin-resistant, ESBL-expressing clinical isolate, * = arithmetic mean of 2-6 MIC determinations, read-out: MIC (ug/mL) K. pneumoniae
# Description: as §1, §2
# Klebsiella pneumoniae: Ciprofloxacin-resistant isolate, expresses extended-spectrum beta-lactamases (ESBL), clinical isolate;
# [2] = molecular target: T1, Pseudomonas aeruginosa LpxC enzyme (Pseudomonas aeruginosa, UniProt P47205); assay: IC50 assay, LpxC enzyme from P. aeruginosa; format: biochemical; details: 0.5 nM enzyme, 25° C., pH 8.0, 20 min; ** = average of 2-8 assays
# T1 construct: made in house; host or cells: E. coli
# T1 sequence (P47205 1-303): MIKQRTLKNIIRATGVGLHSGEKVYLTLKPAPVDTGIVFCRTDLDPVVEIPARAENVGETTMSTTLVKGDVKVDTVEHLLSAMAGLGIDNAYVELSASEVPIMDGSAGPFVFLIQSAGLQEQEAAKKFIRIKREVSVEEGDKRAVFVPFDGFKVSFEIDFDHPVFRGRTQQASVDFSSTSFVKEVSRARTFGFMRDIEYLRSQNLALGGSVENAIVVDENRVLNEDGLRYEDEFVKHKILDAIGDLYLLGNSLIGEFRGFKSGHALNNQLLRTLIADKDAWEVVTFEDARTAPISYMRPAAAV
# Description: IC50 assay, LpxC enzyme from P. aeruginosa: IC50 determination in the LpxC enzyme assay was carried out in a similar manner to that described by S. A. Hyland et al., J. Bacteriology 1997, 179, 2029-2037. [See also T. Kline et al., J. Medicinal Chemistry 2002, 45, 3112-3129.] Briefly, Pseudomonas aeruginosa LpxC enzyme (0.5 nM) purified from E. coli-overexpressing bacteria was incubated at 25° C. in a final volume of 25 ul containing 0.5 uM UDP-3-O—(R-3-hydroxydecanoyl)-N—[^3H-acetyl]glucosamine (B. D. Maxwell and J. C. Bronstein, J. Labeled Compounds and Radiopharmaceuticals 2005, 48, 1049-1054), 1 mg/ml BSA, and 50 mM sodium phosphate buffer, pH 8.0 in the presence and absence of inhibitor compound. At the end of 20 min, 90 ul of a pre-mixed 3% suspension of activated charcoal in 100 mM sodium acetate, pH 7.5, was added to stop the enzyme reaction. The contents of the well were transferred to a filter plate and filtered, and an aliquot of the filtrate was quantitated by liquid scintillation spectrometry. A no-enzyme control was subtracted in order to eliminate background counts.
# [3] = test system: Staphylococcus aureus ATCC 29213; assay: MIC determination, S. aureus ATCC 29213; format: cell-based; details: ATCC29213, CLSI quality control reference strain, * = arithmetic mean of 2-6 MIC determinations, read-out: MIC (ug/mL) S. aureus ATCC 29213
# Description: as §1, §2
# Staphylococcus aureus ATCC 29213: CLSI quality control reference strain; and […]
Compound,MIC (P. aeruginosa UI-18) [µg/mL],MIC (Enterobacter aerogenes) [µg/mL],MIC [1] [µg/mL],MIC (P. aeruginosa PAO280) [µg/mL],MIC (Escherichia coli EC-1) [µg/mL],MIC (Klebsiella pneumoniae) [µg/mL],IC50 [2] [µM],MIC [3] [µg/mL]
"Cc1cc([C@H](O)[C@](C)(OCc2ccc(-c3ccc(F)cc3)cc2)C(=O)NO)no1 [Example 38, (2S,3S)-2-[(4′-fluorobiphenyl-4-yl)methoxy]-N,3-dihydroxy-2-methyl-3-(5-methylisoxazol-3-yl)propanamide]",1,64,4,0.015,2,8,0.000132,> 64
"Cc1ccc(-c2ccc(CO[C@](C)(C(=O)NO)[C@@H](O)c3cc(C)on3)cc2)cc1 [Example 39, (2S,3S)-N,3-dihydroxy-2-methyl-2-[(4′-methylbiphenyl-4-yl)methoxy]-3-(5-methylisoxazol-3-yl)propanamide]",1,32,4,0.03,2,4,0.000589,> 64
"C[S+]([O-])c1cc([C@H](O)[C@](C)(OCc2ccc(-c3ccc(F)cc3)cc2)C(=O)NO)no1 (stereo partly drawn) [Example 44, (2S,3S)-2-[(4′-fluorobiphenyl-4-yl)methoxy]-N,3-dihydroxy-2-methyl-3-[5-(methylsulfinyl)isoxazol-3-yl]propanamide]",1,> 64,32,0.015,8,32,0.000283,> 64
"C[C@@](OCc1ccc(-c2ccccc2)cc1)(C(=O)NO)[C@@H](O)c1cc(CO)on1 [Example 34, (2S,3S)-2-(biphenyl-4-ylmethoxy)-N,3-dihydroxy-3-[5-(hydroxymethyl)isoxazol-3-yl]-2-methylpropanamide]",1.25,> 64,64,0.023,28,64,0.000579,> 64
"Cn1nncc1[C@H](O)[C@](C)(OCc1ccc(-c2ccccc2)cc1)C(=O)NO [Example 19, (2S,3S)-2-(biphenyl-4-ylmethoxy)-N,3-dihydroxy-2-methyl-3-(1-methyl-1H-1,2,3-triazol-5-yl)propanamide]",> 64,> 64,> 64,2,> 64,> 64,0.00256,> 64
"CNC(=O)C(C)(OCc1ccc(-c2ccccc2)cc1)C(=O)NO (centres unmarked) [Example 93, 2-(biphenyl-4-ylmethoxy)-N-hydroxy-N′,2-dimethylmalonamide]",8,> 64,> 64,0.125,32,64,–,> 64
"Cc1ccc(-c2ccc(CO[C@](C)(C(=O)NO)[C@@H](O)c3cc(CO)on3)cc2)nc1 [Example 40, (2S,3S)-N,3-dihydroxy-3-[5-(hydroxymethyl)isoxazol-3-yl]-2-methyl-2-{[4-(5-methylpyridin-2-yl)benzyl]oxy}propanamide]",16,> 64,> 64,0.125,> 64,> 64,0.00081,> 64
"Cc1ccnc(-c2ccc(COC(C)(C(=O)NO)C(=O)NCc3cc(C)on3)cc2)c1 (centres unmarked) [Example 87, N-hydroxy-2-methyl-N′-[(5-methylisoxazol-3-yl)methyl]-2-{[4-(4-methylpyridin-2-yl)benzyl]oxy}malonamide]",32,> 64,> 64,0.25,> 64,> 64,0.0023,> 64
"C[C@@](OCc1ccc(-c2ccccc2)cc1)(C(=O)NO)[C@@H](O)c1ccoc1 [Example 22, (2S,3S)-2-(biphenyl-4-ylmethoxy)-3-(3-furyl)-N,3-dihydroxy-2-methylpropanamide]",> 8,> 8,> 8,4,> 8,> 8,0.0105,> 8
"CC(OCc1ccc(-c2ccccc2)cc1)(C(=O)NO)C(=O)NCc1cc(-c2ccccc2)on1 (centres unmarked) [Example 67, 2-(biphenyl-4-ylmethoxy)-N-hydroxy-2-methyl-N′-[(5-phenylisoxazol-3-yl)methyl]malonamide]",4,> 16,8,0.5,16,> 16,0.0032,> 16
"Cc1cc(-c2ccc(COC(C)(C(=O)NO)C(=O)NCc3cc(C)on3)cc2)ccn1 (centres unmarked) [Example 86, N-hydroxy-2-methyl-N′-[(5-methylisoxazol-3-yl)methyl]-2-{[4-(2-methylpyridin-4-yl)benzyl]oxy}malonamide]",16,> 64,> 64,0.25,> 64,> 64,0.00681,> 64
"CCCc1ccc(-c2ccc(CO[C@](C)(C(=O)NO)[C@@H](O)c3cn4ccccc4n3)cc2)cc1 [Example 26, (2S,3S)-N,3-dihydroxy-3-imidazo[1,2-a]pyridin-2-yl-2-methyl-2-[(4′-propylbiphenyl-4-yl)methoxy]propanamide]",8,8,1,2,1,4,0.00137,32

# From patent US9340493B2, “Hydroxamic acid derivatives useful as antibacterial agents” (Pfizer Inc., priority 2008, dated 2016)
